# Experimental data from ChEMBL document CHEMBL1140826, “Synthesis of benzamide derivatives as TRPV1 antagonists” (Bioorg Med Chem Lett, 2008).
# Where “and” joins values, the source holds several entries; their conditions need not be identical. Equal entries are not always repeated.
# Biological target: Transient receptor potential cation channel subfamily V member 1 (Homo sapiens, UniProt Q8NER1)
# Assay: Antagonist activity at human TRPV1 assessed as inhibition of capsaicin-induced calcium influx in HEK293 cells
# Format: functional, cell-based
# Settings: not given
# Transient receptor potential cation channel subfamily V member 1 (Homo sapiens, UniProt Q8NER1), sequence (Q8NER1 whole entry): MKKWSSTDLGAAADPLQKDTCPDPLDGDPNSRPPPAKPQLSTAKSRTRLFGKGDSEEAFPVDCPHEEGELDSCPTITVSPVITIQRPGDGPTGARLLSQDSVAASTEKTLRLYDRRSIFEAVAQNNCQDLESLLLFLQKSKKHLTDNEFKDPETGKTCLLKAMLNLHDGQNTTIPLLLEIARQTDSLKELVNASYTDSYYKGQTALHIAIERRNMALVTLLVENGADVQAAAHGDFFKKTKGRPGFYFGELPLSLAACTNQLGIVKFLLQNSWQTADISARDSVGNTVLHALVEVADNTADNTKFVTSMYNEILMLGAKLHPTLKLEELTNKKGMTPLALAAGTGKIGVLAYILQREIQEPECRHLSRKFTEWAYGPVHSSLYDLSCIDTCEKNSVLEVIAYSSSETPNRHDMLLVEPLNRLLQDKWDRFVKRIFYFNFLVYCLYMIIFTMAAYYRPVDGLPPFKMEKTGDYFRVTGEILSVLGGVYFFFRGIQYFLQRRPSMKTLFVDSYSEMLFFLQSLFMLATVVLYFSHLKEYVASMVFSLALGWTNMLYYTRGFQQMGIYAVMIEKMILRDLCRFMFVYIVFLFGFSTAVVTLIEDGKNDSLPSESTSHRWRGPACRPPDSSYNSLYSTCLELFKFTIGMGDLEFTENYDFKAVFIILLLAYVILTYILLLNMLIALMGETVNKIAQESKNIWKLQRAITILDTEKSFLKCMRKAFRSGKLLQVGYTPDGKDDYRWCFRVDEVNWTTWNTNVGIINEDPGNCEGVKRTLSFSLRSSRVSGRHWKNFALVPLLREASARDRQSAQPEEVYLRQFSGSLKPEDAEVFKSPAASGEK
row,SMILES,IC50
1,COc1ccc2c(c1)N(CCNC(=O)c1ccc(OC(F)(F)F)cc1)CCC2,> 10000 nM
2,O=C(NCCc1ccccc1Cl)c1ccc(OC(F)(F)F)cc1,776 nM
3,O=C(NCCC1CCCc2ccccc21)c1ccc(OC(F)(F)F)cc1 (configuration not stated),5400 nM
4,O=C(NCCc1ccc(Cl)cc1Cl)c1ccc(OC(F)(F)F)cc1,2560 nM
5,COc1ccc2[nH]cc(CCNC(=O)c3ccc(OCC(F)(F)F)nc3)c2c1,3400 nM
6,CC(C)(C)C1CCC(c2nc3ccc(OC(F)(F)F)cc3[nH]2)CC1 (configuration not stated),4970 nM
7,COc1ccc2nccc(CC(C)NC(=O)c3ccc(OC(F)(F)F)cc3)c2c1 (configuration not stated),> 10000 nM
8,O=C(NCCc1ccccc1F)c1ccc(OC(F)(F)F)cc1,3490 nM
9,O=C(NCCN1CCCc2ccccc21)c1ccc(OC(F)(F)F)cc1,4600 nM
10,CC(C)(C)c1ccc(NC(=O)c2ccc(OC(F)(F)C(F)F)cc2)cc1,70 nM
11,O=C(Nc1ccc(I)cc1)c1ccc(C(=O)C(F)(F)F)cc1,790 nM
12,CC(C)(C)c1ccc(NC(=O)c2ccc(SC(F)(F)F)cc2)cc1,253 nM
13,O=C(Nc1ccc(I)cc1)c1ccccc1C(F)(F)F,> 10000 nM
14,COc1ccc2[nH]cc(CCNC(=O)c3ccc(C(F)(F)F)nc3)c2c1,> 10000 nM
15,CC(Cc1cccc2ccc(O)cc12)NC(=O)c1ccc(OC(F)(F)F)cc1 (configuration not stated),81 nM
16,COc1ccc2[nH]cc(CCNC(=O)c3ccc(Oc4ccccc4)cc3)c2c1,1890 nM
17,O=C(NCCc1ccc(O)c2ccc(O)cc12)c1ccc(OC(F)(F)F)cc1,76 nM
18,CC(CNC(=O)c1ccc(OC(F)(F)F)cc1)c1c[nH]c2ccc(O)cc12 (configuration not stated),550 nM
19,COc1ccc2[nH]cc(CCNC(=O)c3ccc(-c4ccccc4)nc3)c2c1,3940 nM
20,CC(CNC(=O)c1ccc(OC(F)(F)F)cc1)c1ccc(O)c2ccc(O)cc12 (racemic),14 nM
21,O=C(NCCc1cccc(Cl)c1)c1ccc(OC(F)(F)F)cc1,> 10000 nM and 1930 nM
22,O=C(NCCc1ccc(Cl)c(Cl)c1)c1ccc(OC(F)(F)F)cc1,3700 nM

row,SMILES,IC50
1,O=C(Nc1ccc(I)cc1)Nc1ccc(C(F)(F)F)cc1,> 10000 nM
2,O=C(NCCC1CCCc2ccc(O)cc21)c1ccc(OC(F)(F)F)cc1 (configuration not stated),1350 nM
3,CC(C)(C)c1ccc(NC(=O)c2ccc(OCC(F)(F)F)cc2)cc1,> 10000 nM
4,CC(=O)c1ccc(C(=O)Nc2ccc(I)cc2)cc1,> 10000 nM
5,O=C(NCCc1cccc2ccncc12)c1ccc(OC(F)(F)F)cc1,6700 nM
6,CC(C)(C)c1ccc(-n2nnc(-c3ccc(C(F)(F)F)cc3)n2)cc1,> 10000 nM
7,COc1ccc2[nH]cc(CCNC(=O)c3ccc(-c4ccncc4)cc3)c2c1,> 10000 nM
8,Cn1c2c(c3cc(O)ccc31)C(CNC(=O)c1ccc(OC(F)(F)F)cc1)CCC2 (configuration not stated),23 nM
9,COc1ccc2[nH]cc(CCNC(=O)c3ccc(-c4ccccc4)cc3)c2c1,370 nM
10,O=C(NCCn1ccc2ccccc21)c1ccc(OC(F)(F)F)cc1,7300 nM
11,CC(C)(C)c1ccc(NC(=O)c2ccc(C(F)(F)F)cc2)cc1,220 nM
12,COc1ccc2[nH]cc(CCNC(=O)c3ccc(OC(F)(F)F)cc3)c2c1,1310 nM
13,CCC(c1ccccn1)c1c(Cl)c(Cl)cc2[nH]c(=O)c(=O)[nH]c12 (configuration not stated),1400 nM
14,O=C(Nc1ccc(I)cc1)c1ccc(OC(F)(F)F)cc1,280 nM
15,CC(C)(C)c1ccc2[nH]cc(CCNC(=O)c3ccc(OC(F)(F)F)cc3)c2c1,> 10000 nM
16,O=C(Nc1ccc(C(F)(F)F)cc1)c1ccc(OC(F)(F)F)cc1,220 nM
17,CC(C)(C)c1ccc(C(N)C(=O)c2ccc(OC(F)(F)F)cc2)cc1 (configuration not stated),> 10000 nM
18,O=C(Nc1ccc(I)cc1)c1ccc(C(F)(F)F)cc1,330 nM
19,O=C(NCCc1ccnc2ccccc12)c1ccc(OC(F)(F)F)cc1,> 10000 nM
20,COc1ccc2c(c1)c1c(n2C)CCCC1CNC(=O)c1ccc(OC(F)(F)F)cc1 (configuration not stated),490 nM
21,O=C(NCCc1c[nH]c2ccc(Cl)cc12)c1ccc(OC(F)(F)F)cc1,3720 nM
22,O=C(NCCc1cccc2ccccc12)c1ccc(OC(F)(F)F)cc1,2600 nM

row,SMILES,IC50
1,CC(C)(C)c1ccc(NC(=O)c2ccc(OC(F)(F)F)cc2)cc1,120 nM
2,COc1ccc2[nH]cc(CCNC(=O)c3ccc(CC(C)C)cc3)c2c1,3430 nM
3,COc1ccc2[nH]cc(CCNC(=O)c3ccc(C4CCCCC4)cc3)c2c1,1160 nM
4,O=C(Nc1ccc(-c2ccccc2)cc1)c1ccc(OC(F)(F)F)cc1,> 10000 nM
5,O=C(NCCN1CCCc2ccc(O)cc21)c1ccc(OC(F)(F)F)cc1,960 nM
6,COc1ccc2[nH]cc(CCNC(=O)c3ccc(C(F)(F)F)cc3)c2c1,2090 nM
7,CC(C)(C)c1ccc(-c2cc3cc(C(C)(C)C)ccc3[nH]2)cc1,> 10000 nM
8,CN(C(=O)c1ccc(OC(F)(F)F)cc1)c1ccc(C(C)(C)C)cc1,> 10000 nM
9,CC(C)(C)c1ccc(CC(=O)c2ccc(C(F)(F)F)cc2)cc1,> 10000 nM
10,O=C(Nc1ccc(C2CCCCC2)cc1)c1ccc(OC(F)(F)F)cc1,> 10000 nM
11,Cc1[nH]c2ccc(O)cc2c1C(C)CNC(=O)c1ccc(OC(F)(F)F)cc1 (configuration not stated),3280 nM
12,CC(C)(C)c1ccc(/C=C(\C#N)c2ccc(C(F)(F)F)cc2)cc1,> 10000 nM
13,O=C(NCCc1c(Cl)cccc1Cl)c1ccc(OC(F)(F)F)cc1,205 nM
14,CC(C)(C)c1cc(NC(=O)c2ccc(OC(F)(F)F)cc2)cc(C(C)(C)C)c1,> 10000 nM
15,COc1ccc2[nH]cc(CCNC(=O)c3ccc(OCCN(C)C)cc3)c2c1,> 10000 nM
16,O=C(NCCc1c[nH]c2ccc(F)cc12)c1ccc(OC(F)(F)F)cc1,2620 nM
17,O=C(NCCc1c[nH]c2ccc(O)cc12)c1ccc(OC(F)(F)F)cc1,1730 nM
18,O=C(NCCc1ccnc2ccc(O)cc12)c1ccc(OC(F)(F)F)cc1,1230 nM
19,COc1ccc2ccn(CCNC(=O)c3ccc(OC(F)(F)F)cc3)c2c1,3550 nM
20,COc1ccc2cccc(CCNC(=O)c3ccc(OC(F)(F)F)cc3)c2c1,1400 nM
21,COc1ccc2c(c1)C(CCNC(=O)c1ccc(OC(F)(F)F)cc1)CCC2 (configuration not stated),4650 nM
22,O=C(NCC1CCCc2[nH]c3ccc(O)cc3c21)c1ccc(OC(F)(F)F)cc1 (configuration not stated),200 nM

row,SMILES,IC50
1,COc1ccc2[nH]c(C)c(C(C)CNC(=O)c3ccc(OC(F)(F)F)cc3)c2c1 (configuration not stated),5070 nM
2,O=C(Nc1ccc(C(F)(F)F)cc1)c1ccc(I)cc1,> 10000 nM
3,O=C(NCCc1c[nH]c2ccccc12)c1ccc(OC(F)(F)F)cc1,7350 nM
4,COc1ccc2c(OC)ccc(CCNC(=O)c3ccc(OC(F)(F)F)cc3)c2c1,> 10000 nM
5,O=C(NCCc1cccc2ccc(O)cc12)c1ccc(OC(F)(F)F)cc1,150 nM
6,CC(C)(C)c1ccc2[nH]c(-c3ccc(OC(F)(F)C(F)F)cc3)nc2c1,477 nM
7,O=C(NCCc1c[nH]c2ccccc12)c1ccc(C(F)(F)F)cc1,4230 nM
8,Cn1cc(CCNC(=O)c2ccc(C(F)(F)F)cc2)c2ccccc21,> 10000 nM
9,COc1ccc2[nH]cc(CCNC(=O)c3ccc(OC(F)(F)C(F)F)cc3)c2c1,1640 nM
10,FC(F)C(F)(F)Oc1ccc(-c2nc3cc(Br)ccc3[nH]2)cc1,380 nM
11,FC(F)(F)c1ccc(-c2ncc(-c3ccc(Br)cc3)[nH]2)cc1,6000 nM
12,COc1ccc2cccc(CC(C)NC(=O)c3ccc(OC(F)(F)F)cc3)c2c1 (configuration not stated),3100 nM
13,CC(Cc1ccnc2ccc(O)cc12)NC(=O)c1ccc(OC(F)(F)F)cc1 (configuration not stated),740 nM
14,O=C(Nc1ccc2c(c1)CCC2)c1ccc(OC(F)(F)F)cc1,210 nM
15,O=C(Nc1ccc(I)cc1)c1cccc(C(F)(F)F)c1,> 10000 nM
16,COc1ccc2[nH]cc(C(C)CNC(=O)c3ccc(OC(F)(F)F)cc3)c2c1 (configuration not stated),400 nM
17,CS(=O)(=O)c1ccc(C(=O)Nc2ccc(I)cc2)cc1,> 10000 nM
18,COc1ccc2nccc(CCNC(=O)c3ccc(OC(F)(F)F)cc3)c2c1,> 10000 nM
19,CC(C)(C)c1ccc(-c2nc3cc(OC(F)(F)F)ccc3[nH]2)cc1,1420 nM

# Same assay, conditions: read-out: pA2 (converted)
row,SMILES,Kb
1,COc1ccc2[nH]cc(C(C)CNC(=O)c3ccc(OC(F)(F)F)cc3)c2c1 (configuration not stated),145 nM

# Biological target: Transient receptor potential cation channel subfamily V member 1 (Rattus norvegicus, UniProt O35433)
# Sequence (O35433 whole entry): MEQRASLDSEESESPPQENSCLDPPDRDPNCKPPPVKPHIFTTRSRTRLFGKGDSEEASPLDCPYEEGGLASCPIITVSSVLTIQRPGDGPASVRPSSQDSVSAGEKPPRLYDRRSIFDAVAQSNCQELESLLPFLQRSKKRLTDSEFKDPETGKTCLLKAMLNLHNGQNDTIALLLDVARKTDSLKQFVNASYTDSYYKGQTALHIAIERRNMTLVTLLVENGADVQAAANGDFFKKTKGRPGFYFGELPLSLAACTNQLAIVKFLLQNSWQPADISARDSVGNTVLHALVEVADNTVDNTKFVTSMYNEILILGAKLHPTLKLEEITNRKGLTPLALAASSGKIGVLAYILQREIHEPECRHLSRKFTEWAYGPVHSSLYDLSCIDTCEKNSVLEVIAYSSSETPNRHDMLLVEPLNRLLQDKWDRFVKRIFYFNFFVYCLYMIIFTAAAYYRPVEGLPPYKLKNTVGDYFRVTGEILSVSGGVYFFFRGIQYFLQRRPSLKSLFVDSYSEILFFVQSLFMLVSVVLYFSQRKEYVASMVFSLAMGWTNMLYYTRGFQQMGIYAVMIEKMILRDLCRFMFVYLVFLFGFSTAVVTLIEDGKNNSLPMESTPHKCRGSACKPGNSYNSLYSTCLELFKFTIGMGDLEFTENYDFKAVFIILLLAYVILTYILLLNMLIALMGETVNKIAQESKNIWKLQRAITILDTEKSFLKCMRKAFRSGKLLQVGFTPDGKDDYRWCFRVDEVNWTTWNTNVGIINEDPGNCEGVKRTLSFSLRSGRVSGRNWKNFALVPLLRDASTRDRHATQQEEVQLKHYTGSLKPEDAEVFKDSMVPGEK
# Assay: Antagonist activity at rat TRPV1 assessed as inhibition of capsaicin-induced calcium mobilization
# Format: functional
# Settings: not given
row,SMILES,IC50
1,CC(C)(C)c1ccc(NC(=O)c2ccc(OC(F)(F)C(F)F)cc2)cc1,260 nM
2,CC(CNC(=O)c1ccc(OC(F)(F)F)cc1)c1ccc(O)c2ccc(O)cc12 (racemic),44 nM
3,Cn1c2c(c3cc(O)ccc31)C(CNC(=O)c1ccc(OC(F)(F)F)cc1)CCC2 (configuration not stated),410 nM
4,COc1ccc2[nH]cc(C(C)CNC(=O)c3ccc(OC(F)(F)F)cc3)c2c1 (configuration not stated),5200 nM

# Species on record: Mus musculus
# Assay: Effect on capsaicin-induced licking in mouse
# Format: functional
# Settings: not given
row,SMILES,ED50
1,CC(C)(C)c1ccc(NC(=O)c2ccc(OC(F)(F)C(F)F)cc2)cc1,3.8 mg/kg

# Species on record: Mus musculus
# Assay: Effect on capsaicin-induced hypothermia in mouse
# Format: functional
# Settings: not given
row,SMILES,ED50
1,CC(C)(C)c1ccc(NC(=O)c2ccc(OC(F)(F)C(F)F)cc2)cc1,4.5 mg/kg

# Species on record: Rattus norvegicus
# Assay: Effect on capsaicin-induced hypothermia in rat
# Format: functional
# Settings: not given
row,SMILES,ED50
1,CC(C)(C)c1ccc(NC(=O)c2ccc(OC(F)(F)C(F)F)cc2)cc1,4.2 mg/kg

# Test system: Rattus norvegicus
# Assay: Reduction of rectal temperature in rat CCI model at 100 mg/kg, ip
# Format: functional
# Settings: route intraperitoneal
row,SMILES,inhibition in vivo at 100 mg/kg
1,CC(C)(C)c1ccc(NC(=O)c2ccc(OC(F)(F)C(F)F)cc2)cc1,59%

# Test system: Mus musculus
# Assay: Reduction of rectal temperature in mouse CCI model at 100 mg/kg, ip
# Format: functional
# Settings: route intraperitoneal
row,SMILES,inhibition in vivo at 100 mg/kg
1,CC(C)(C)c1ccc(NC(=O)c2ccc(OC(F)(F)C(F)F)cc2)cc1,59%

# Test system: Rattus norvegicus
# Assay: Effect on carrageenan-induced thermal hyperalgesia in rat at 30 mg/kg, ip
# Format: functional
# Settings: route intraperitoneal
row,SMILES,inhibition in vivo at 30 mg/kg
1,CC(C)(C)c1ccc(NC(=O)c2ccc(OC(F)(F)C(F)F)cc2)cc1,52%

# Test system: Mus musculus
# Assay: Effect on carrageenan-induced thermal hyperalgesia in mouse at 30 mg/kg, ip
# Format: functional
# Settings: route intraperitoneal
row,SMILES,inhibition in vivo at 30 mg/kg
1,CC(C)(C)c1ccc(NC(=O)c2ccc(OC(F)(F)C(F)F)cc2)cc1,52%

# Test system: not listed separately
# Assay: Half life in iv dosed rat
# Format: ADME, organism-based
# Settings: in vivo
row,SMILES,half-life
1,Cn1c2c(c3cc(O)ccc31)C(CNC(=O)c1ccc(OC(F)(F)F)cc1)CCC2 (configuration not stated),2.1 h

# Test system: not listed separately
# Assay: Oral bioavailability in rat administered through PEG400
# Format: ADME, organism-based
# Settings: in vivo
row,SMILES,bioavailability
1,Cn1c2c(c3cc(O)ccc31)C(CNC(=O)c1ccc(OC(F)(F)F)cc1)CCC2 (configuration not stated),30.2%

# Test system: not listed separately
# Assay: Half life in po dosed rat administered through PEG400
# Format: ADME, organism-based
# Settings: in vivo
row,SMILES,half-life
1,Cn1c2c(c3cc(O)ccc31)C(CNC(=O)c1ccc(OC(F)(F)F)cc1)CCC2 (configuration not stated),2.1 h

# Test system: not listed separately
# Assay: Oral bioavailability in rat administered through 0.1% MC solution
# Format: ADME, organism-based
# Settings: in vivo
row,SMILES,bioavailability
1,Cn1c2c(c3cc(O)ccc31)C(CNC(=O)c1ccc(OC(F)(F)F)cc1)CCC2 (configuration not stated),0.7%

# Test system: not listed separately
# Assay: Half life in po dosed rat administered through 0.1% MC solution
# Format: ADME, organism-based
# Settings: in vivo
row,SMILES,half-life
1,Cn1c2c(c3cc(O)ccc31)C(CNC(=O)c1ccc(OC(F)(F)F)cc1)CCC2 (configuration not stated),1.2 h
